Source: publication PMC12563520, “Asiatic Acid from Centella asiatica as a Potent EGFR Tyrosine Kinase Inhibitor with Anticancer Activity in NSCLC Cells Harboring Wild-Type and T790M-Mutated EGFR” (Biomolecules, 2025)
Read-outs that look alike come from different tables or passages of the source.

Key:
wild-type EGFR = target: T1, wild-type EGFR (Homo sapiens, UniProt P00533); assay: ADP-Glo kinase assay, wild-type EGFR; type: biochemical; conditions: mean ± SEM (n = 3), read-out: IC50 kinase inhibition, Wild-Type EGFR
T1 construct: purchased Sigma-Aldrich SRP0239

L858R/T790M EGFR = target: T2, L858R/T790M EGFR (Homo sapiens, UniProt P00533, L858R/T790M); assay: ADP-Glo kinase assay, double-mutant EGFR; type: biochemical; conditions: mean ± SEM (n = 3), read-out: IC50 kinase inhibition, L858R/T790M EGFR
T2 construct: purchased Sigma-Aldrich SRP0242
Method: The EGFR inhibitory activity of the tested compound was measured using the ADP-Glo^TM assay (Promega, WI, USA) according to a previous study [28]. […] For the positive control, 2 μL of DMSO was added in place of the tested compound. For the negative control, the EGFR enzyme was omitted and replaced with 5 μL of 1X kinase buffer. The plate was protected from light and incubated at room temperature for 1 h, followed by the addition of 5 μL ADP-Glo^TM reagent and a further 40-min incubation. To convert ADP to ATP, 10 μL of kinase detection reagent was added, followed by a 30-min incubation under the same conditions. ATP levels were then measured using a Varioskan LUX multimode microplate reader (Thermo Fisher Scientific, Waltham, MA, USA), and percent inhibition was calculated using Equation (1).(1) Inhibition activity %=positive − negative−sample −negative/positive−negative ×100
The IC50 of each compound was calculated using GraphPad Prism software (version 8.0.2, GraphPad Software, Inc., Boston, MA, USA).

[1] = target: fibroblast growth factor receptor (FGFR); assay: FGFR kinase inhibition (selectivity); type: biochemical
A549 cells [2] = assay: MTT cell viability assay, A549; type: cell-based; conditions: Homo sapiens, 72 h, mean ± SEM (n = 3)
Method: (§1) Cells were seeded in a 96-well plate at 1,500 cells/well and incubated at 37 °C for 24 h. After incubation, the culture medium was replaced with fresh medium containing various concentrations of asiatic acid. Cells treated with 0.8% (v/v) DMSO served as the vehicle control. After 72 h, cells were incubated with 100 μL of MTT solution (0.5 mg/mL in PBS) for 4 h at 37 °C. The solution was then removed, 100 μL of DMSO was added, and the plate was protected from light with gentle agitation for 15 min. Absorbance was recorded at 540 nm using a Sunrise microplate reader (Tecan Group Ltd., Männedorf, Switzerland).

H1975 cells [3] = assay: MTT cell viability assay, H1975; type: cell-based; conditions: Homo sapiens, NCI-H1975
Method: as §1

[4] = tested on: BEAS-2B normal lung epithelial cells; assay: MTT cell viability assay, BEAS-2B; type: cell-based, human
Method: as §1

A549 cells [5] = assay: Annexin V/PI apoptosis assay by flow cytometry, A549; type: cell-based, human; conditions: 24 h
Method: (§2) Cells were plated in a 6-well plate at a density of 200,000 cells/well and allowed to adhere overnight at 37 °C. The following day, cells were treated with increasing concentrations of asiatic acid for 24 h. […] After treatment, cells were harvested by trypsinization and centrifugation. The cell pellets were stained with FITC-conjugated Annexin V (640945; BioLegend, San Diego, CA, USA) and incubated for 30 min at room temperature in the dark. Propidium iodide (PI; P3566; Invitrogen^TM, Waltham, MA, USA) was then added, and apoptotic populations were analyzed using a BD FACSCalibur flow cytometer (BD Biosciences, Heidelberg, Germany).

H1975 cells [6] = assay: Annexin V/PI apoptosis assay by flow cytometry, H1975; type: cell-based, human; conditions: 24 h
Method: as §2, with “The cell pellets were stained with FITC-conjugated Annexin V (640945; BioLegend, San Diego, CA, USA) and incubated for 30 min at room temperature in the dark.” left out

[7] = tested on: cleaved PARP (Asp214) in A549 cells; assay: Western blot of cleaved PARP, A549; type: cell-based, human; conditions: for cleaved PARP expression (fold), Mean: 24 h, vs 0 μM
Method: (§3) Cells were plated at 200,000 cells/well in a 6-well plate and allowed to adhere for 24 h. They were then treated with the tested compound at varying concentrations for 24 h. For A549 cells, treatment was performed in serum-free medium for 24 h, followed by stimulation with 100 ng/mL human EGF for 10 min prior to harvesting. Cells were harvested by trypsinization, lysed in RIPA buffer [50 mM Tris-HCl (pH 7.4), 150 mM NaCl, 1% NP-40, 1% Na-deoxycholate, and 0.1% SDS] with protease and phosphatase inhibitors, and incubated on ice for 30 min. Lysates were centrifuged, and protein concentration was determined using the Bradford assay. Equal amounts (30 μg) were separated by 10% SDS-PAGE and transferred to a […] membrane (Immobilon®-P, Merck Millipore, Burlington, MA, USA). The membrane was blocked with 5% skim milk in 1X TBST and incubated overnight at 4 °C with primary antibodies (Table S2) diluted 1:1000 in 1% skim milk-TBST or 1% BSA-TBST. After washing, membranes were incubated at room temperature for 1 h with secondary antibodies—goat anti-Rabbit IgG or goat anti-Mouse IgG (Invitrogen, Waltham, MA, USA)—diluted 1:2000. Protein signals were detected using Luminata^TM Crescendo Western HRP Substrate (Merck Millipore) and imaged with an ImageQuant 800 system (GE Healthcare Bio-Sciences, Uppsala, Sweden). The auto exposure mode was selected to automatically adjust the exposure time to prevent image saturation. The detected signal was quantified using Image Studio Lite (version 5.2, LICORbio^TM, Lincoln, NE, USA).

[8] = tested on: cleaved PARP (Asp214) in H1975 cells; assay: Western blot of cleaved PARP, H1975; type: cell-based, human; conditions: for cleaved PARP expression (fold), Mean: 24 h, vs 0 μM
Method: as §3

[9] = tested on: p-ERK (Thr202/Tyr204) in A549 cells; assay: Western blot of p-ERK, A549; type: cell-based, human; conditions: for p-ERK expression (fold), Mean: 24 h, vs DMSO
Method: as §3

[10] = tested on: p-Akt (Ser473) in A549 cells; assay: Western blot of p-Akt, A549; type: cell-based, human; conditions: for p-Akt expression (fold), Mean: 24 h, vs DMSO
Method: as §3

[11] = tested on: p-ERK (Thr202/Tyr204) in H1975 cells; assay: Western blot of p-ERK, H1975; type: cell-based, human; conditions: for p-ERK expression (fold), Mean: 24 h, vs DMSO
Method: as §3

[12] = tested on: p-Akt (Ser473) in H1975 cells; assay: Western blot of p-Akt, H1975; type: cell-based, human; conditions: for p-Akt expression (fold), Mean: 24 h, vs DMSO
Method: as §3

[13] = target: T3, p-EGFR (Tyr1068) in A549 cells (Homo sapiens, UniProt P00533); assay: Western blot of p-EGFR, EGF-stimulated A549; type: cell-based; conditions: for p-EGFR expression (fold), Mean: A549, EGF-stimulated (+), vs DMSO (+)
T3 construct: endogenous in cells; host or cells: A549
Method: as §3

[14] = target: T4, p-EGFR (Tyr1068) in H1975 cells (Homo sapiens, UniProt P00533, L858R/T790M); assay: Western blot of p-EGFR, H1975; type: cell-based; conditions: H1975, 6.25–50 μM, dose-dependent
T4 construct: endogenous in cells; host or cells: H1975
Method: as §3, with “After washing, membranes were incubated at room temperature for 1 h with secondary antibodies—goat anti-Rabbit IgG or goat anti-Mouse IgG (Invitrogen, Waltham, MA, USA)—diluted 1:2000.” left out, “The auto exposure mode was selected to automatically adjust the exposure time to prevent image saturation.” left out

[15] = target: T5, EGFR protein in A549 cells (Homo sapiens, UniProt P00533); assay: Cellular thermal shift assay (CETSA); type: binding; conditions: A549 cell lysates, 100 μM, 1 hour, heated at 40–60 °C, n = 2
T5 construct: endogenous in cells; host or cells: A549
Method: Figure S9. The cellular thermal shift assay. The stability of EGFR protein in A549 cells was assessed by treating cell lysates with either 0.2% DMSO or 100 μM asiatic acid for 1 hour. Following treatment, samples were heated at 40–60 °C for 3 minutes, rapidly cooled on ice for 10 minutes, and then centrifuged at 12,000 rpm at 4 °C for 30 minutes.
The supernatants were analyzed by Western blot, and relative band intensities were plotted against the corresponding heating temperatures. Data are expressed as mean ± […]
(1 picture or pasted object on this page, not shown here)

[16] = A549, 100 μM, listed as AS-PN005

C[C@H]1[C@H](C)CC[C@]2(C(=O)O)CC[C@]3(C)C(=CC[C@@H]4[C@@]5(C)C[C@@H](O)[C@H](O)[C@@](C)(CO)[C@@H]5CC[C@]43C)[C@H]12 [Asiatic acid, asiatic acid]
IC50 (wild-type EGFR): 0.035 ± 0.002 nM | IC50 (L858R/T790M EGFR): 0.000348 ± 5.5e-05 µM | IC50 ([1]; Figure S8): 0.000471 µM | selectivity for EGFR over FGFR ([1]; ratio of kinase IC50 values): approximately 13.5 fold | IC50 (A549 cells [2]): 64.5 ± 2.49 µM | IC50 (H1975 cells [3]; H1975, MTT, 72 h, mean ± SEM (n = 3), read-out: IC50 cell viability): 36.6 ± 0.86 µM | viability at 100 µM (H1975 cells [3]; H1975, concentrations of ≥100 μM, read-out: cell viability): < 40% | IC50 ([4]; Homo sapiens, BEAS-2B, 72 h, mean ± SEM (n = 3)): 184 ± 5.38 µM | cytotoxicity in BEAS-2B cells ([4]; concentrations ≤100 μM (12.5–100 μM)): no notable cytotoxicity | increase of apoptotic cell population relative to DMSO-treated group (A549 cells [5]; A549, 100 μM): approximately threefold | increase of apoptotic cell population relative to DMSO-treated group (H1975 cells [6]; H1975, 50 μM): about twofold | cleaved PARP expression (fold), Mean ([7]; A549, 25 μM): 3.12 fold | cleaved PARP expression (fold), Mean ([7]; A549, 50 μM): 4.42 fold | cleaved PARP expression (fold), Mean ([7]; A549, 100 μM): 6.86 fold | cleaved PARP (Asp214) levels, in words ([7]; A549, 25–100 μM, p < 0.0001): significant, concentration-dependent increase | cleaved PARP expression (fold), Mean ([8]; H1975, 12.5 μM): 7.26 fold | cleaved PARP expression (fold), Mean ([8]; H1975, 25 μM): 9.99 fold | cleaved PARP expression (fold), Mean ([8]; H1975, 50 μM): 14.15 fold | cleaved PARP expression, in words ([8]; H1975, 12.5–50 μM, p < 0.0001): significantly elevated | p-ERK expression (fold), Mean ([9]; A549, 12.5 μM): 0.427 fold | p-ERK expression (fold), Mean ([9]; A549, 25 μM): 0.402 fold | p-ERK expression (fold), Mean ([9]; A549, 50 μM): 0.294 fold | p-ERK expression (fold), Mean ([9]; A549, 100 μM): reducing these proteins more than erlotinib | p-ERK expression (fold), Mean [9, 16]: 0.103 fold | p-ERK levels compared to the vehicle control, in words ([9]; A549, 12.5–100 μM): significantly decreased | p-Akt expression (fold), Mean ([10]; A549, 12.5 μM): 0.454 fold | p-Akt expression (fold), Mean ([10]; A549, 25 μM): 0.393 fold | p-Akt expression (fold), Mean ([10]; A549, 50 μM): 0.336 fold | p-Akt expression (fold), Mean ([10]; A549, 100 μM): reducing these proteins more than erlotinib | p-Akt expression (fold), Mean [10, 16]: 0.147 fold | p-Akt levels compared to the vehicle control, in words ([10]; A549, 12.5–100 μM): significantly decreased | p-ERK expression (fold), Mean ([11]; H1975, 6.25 μM): 0.755 fold | p-ERK expression (fold), Mean ([11]; H1975, 12.5 μM): 0.636 fold | p-ERK expression (fold), Mean ([11]; H1975, 25 μM): 0.566 fold | p-ERK expression (fold), Mean ([11]; H1975, 50 μM): 0.458 fold | p-ERK level, in words ([11]; H1975, 6.25–50 μM, p < 0.0001): significant, dose-dependent decrease | p-Akt expression (fold), Mean ([12]; H1975, 6.25 μM): 0.747 fold | p-Akt expression (fold), Mean ([12]; H1975, 12.5 μM): 0.696 fold | p-Akt expression (fold), Mean ([12]; H1975, 25 μM): 0.605 fold | p-Akt expression (fold), Mean ([12]; H1975, 50 μM): 0.423 fold | p-Akt level, in words ([12]; H1975, 6.25–50 μM, p < 0.0001): significant, dose-dependent decrease | EGF-induced EGFR phosphorylation, in words ([13]; A549, 12.5–100 μM, concentration-dependent): significantly inhibited | p-EGFR expression (fold), Mean ([13]; 12.5 μM): 0.75 fold | p-EGFR expression (fold), Mean ([13]; 25 μM): 0.40 fold | p-EGFR expression (fold), Mean ([13]; 50 μM): 0.36 fold | p-EGFR expression (fold), Mean ([13]; 100 μM): 0.21 fold | p-EGFR levels, in words [14]: significantly reduced | thermal stability of EGFR protein (CETSA) [15]: markedly enhanced the stability

C#Cc1cccc(Nc2ncnc3cc(OCCOC)c(OCCOC)cc23)c1 [Erlotinib, reference compound]
increase of apoptosis compared to the untreated group (A549 cells [5]; A549, 10 μM): approximately twofold

C=CC(=O)Nc1cc(Nc2nccc(-c3cn(C)c4ccccc34)n2)c(OC)cc1N(C)CCN(C)C [Osimertinib]
viability at 3.125 µM (H1975 cells [3]; H1975, 3.125 μM, n = 3): 61.5% | viability at 6.25 µM (H1975 cells [3]; H1975, 6.25 μM, n = 3): 44.8% | viability at 12.5 µM (H1975 cells [3]; H1975, 12.5 μM, n = 3): 23.8% | viability at 25 µM (H1975 cells [3]; H1975, 25 μM, n = 3): 12.1% | viability at 50 µM (H1975 cells [3]; H1975, 50 μM, n = 3): 7.89% | viability at 100 µM (H1975 cells [3]; H1975, 100 μM, n = 3, read-out: Cell viability (%) Mean): 0.43% | IC50 (H1975 cells [3]; Table S1, n = 3, read-out: IC50 (μM) Mean, H1975 cell viability): 4.14 µM | increase of apoptosis compared to the untreated group (H1975 cells [6]; H1975, 5 μM): threefold
